From paper PMC2994747, “Molecular Characterization of c-Abl/c-Src Kinase Inhibitors Targeted against Murine Tumour Progenitor Cells that Express Stem Cell Markers” (PLoS ONE, 2010)
Where two headings read alike, the source gives them in different places.

Legend:
[1] = system: A2C12; assay: MTS cell viability assay; format: cell-based, mouse
Procedure: (§1) Three human and eleven murine cancer cell lines were used. The human NSCLC cell line A549 (ACC 107) and the human colorectal carcinoma cell line CaCo2 (ACC 169) were obtained from Deutsche Sammlung von Mikroorganismen und Zellkulturen (DSMZ, Braunschweig, Germany). The human hepatocellular carcinoma cell line HepG2 (HB-8065) was obtained from American Type Culture Collection (Manassas, VA, USA). The 11 murine NSCLC cell lines were established as described recently. Cells were grown in monolayer cultures in DMEM containing 10% foetal calf serum, 4 mmol/l L-glutamine and 2% Penicillin/Streptomycin at 37°C in a humidified atmosphere of 95% air and 5% CO2.
(§2) Cell culture viability was monitored by CellTiter96® AQueous One Solution Cell Proliferation Assay (Promega GmbH, Mannheim, Germany). The cells were seeded in triplicates in 96-well microtitre plates and treated with the dual kinase inhibitors or vehicle (0.2% DMSO). After 24 h or 96 h of treatment the MTS tetrazolium reagent was added to the cells and incubated for 1 h. Absorbance at 490 nm was assayed with a Victor3 Wallac 1420 Multilabel counter (PerkinElmer, Waltham, MA, USA).

[2] = system: BetaD5; assay: MTS cell viability assay; format: cell-based, mouse
Procedure: as §1, §2

[3] = system: GammaA3; assay: MTS cell viability assay; format: cell-based, mouse
Procedure: as §1, §2

[4] = system: GammaD12; assay: MTS cell viability assay; format: cell-based, mouse
Procedure: as §1, §2

[5] = system: A549; assay: MTS cell viability assay; format: cell-based, human
Procedure: as §1, §2

[6] = system: CaCo2; assay: MTS cell viability assay; format: cell-based, human
Procedure: as §1, §2

[7] = system: HepG2; assay: MTS cell viability assay; format: cell-based, human
Procedure: as §1, §2

[8] = system: A2C12; assay: Cell cycle analysis by flow cytometry; format: cell-based, mouse; details: IC50 concentration, 96 h
Procedure: (§3) CycleTEST™ PLUS DNA Reagent Kit (Becton Dickinson GmbH, Heidelberg, Germany) for cell cycle analysis was used, according to the instructions of the manufacturer. Briefly, the cells were harvested with trypsin, washed with PBS, and resuspended in CycleTEST Buffer. The cells were centrifuged and resuspended in solution A. After incubation for 10 min at room temperature, solution B was added and incubated. After adding solution C, the samples were incubated at 4°C protected from light. The samples were stored on ice and protected from light until analysis by FACScan flow cytometer (Becton Dickinson GmbH, Heidelberg, Germany).

[9] = system: BetaD5; assay: Cell cycle analysis by flow cytometry; format: cell-based, mouse; details: IC50 concentration, 96 h
Procedure: as §3

[10] = system: GammaA3; assay: Cell cycle analysis by flow cytometry; format: cell-based, mouse; details: IC50 concentration, 96 h
Procedure: as §3

[11] = system: GammaD12; assay: Cell cycle analysis by flow cytometry; format: cell-based, mouse; details: IC50 concentration, 96 h
Procedure: as §3

[12] = system: A549; assay: Cell cycle analysis by flow cytometry; format: cell-based, human; details: IC50 concentration, 96 h
Procedure: as §3

[13] = system: CaCo2; assay: Cell cycle analysis by flow cytometry; format: cell-based, human; details: IC50 concentration, 96 h
Procedure: as §3

[14] = system: HepG2; assay: Cell cycle analysis by flow cytometry; format: cell-based, human; details: IC50 concentration, 96 h
Procedure: as §3

[15] = Mus musculus, 24 h, read-out: Calculated IC50 after single treatment for 24 h
[16] = Mus musculus, 96 h, read-out: Calculated IC50 after daily treatment for 96 h
[17] = 96 h, read-out: Calculated IC50 after daily treatment for 96 h
[18] = 24 h, read-out: Calculated IC50 after single treatment for 24 h
[19] = MTS, 24 h, read-out: Calculated IC50 after single treatment for 24 h
[20] = MTS, 96 h, read-out: Calculated IC50 after daily treatment for 96 h

| IC50 [5, 17] [µM] | IC50 [5, 18] [µM] | IC50 [6, 18] [µM] | IC50 [6, 17] [µM] | IC50 [7, 18] [µM] | IC50 [7, 17] [µM] | SMILES | IC50 [1, 18] [µM] | IC50 [1, 17] [µM] | IC50 [2, 18] [µM] | IC50 [2, 17] [µM] | IC50 [3, 18] [µM] | IC50 [3, 17] [µM] | IC50 [4, 19] [µM] | IC50 [4, 20] [µM] | Cells in G1 phase [8] [%] | Cells in G2 phase [8] [%] | Cells in S phase [8] [%] | Cells in G1 phase [9] [%] | Cells in G2 phase [9] [%] | Cells in S phase [9] [%] | further results |
| --- | --- | --- | --- | --- | --- | --- | --- | --- | --- | --- | --- | --- | --- | --- | --- | --- | --- | --- | --- | --- | --- |
| 5.2 ± 2.2 |  |  |  |  |  | Cc1nc(Nc2ncc(C(=O)Nc3c(C)cccc3Cl)s2)cc(N2CCN(CCO)CC2)n1 [Dasatinib, reference compound] |  |  |  |  |  |  |  |  |  |  |  |  |  |  | IC50 [1, 15]: 9.8 ± 1.5 µM; IC50 [1, 16]: 10.3 ± 1.6 µM; IC50 [2, 15]: 5.2 ± 0.6 µM; IC50 [2, 16]: 0.84 ± 0.05 µM; IC50 [3, 15]: 1.18 ± 0.1 µM; IC50 [3, 16]: 0.32 ± 0.07 µM; IC50 ([4]; Mus musculus, 96 h, read-out: IC50 (MTS) after treatment for 96 h): 0.8 µM; IC50 ([4]; Mus musculus, MTS, 24 h, read-out: Calculated IC50 after single treatment for 24 h): 2.6 ± 1 µM; IC50 ([5]; Homo sapiens, A549, 24 h, 24 h, read-out: Calculated IC50 after single treatment for 24 h): 39.8 ± 5.8 µM; IC50 ([5]; Homo sapiens, A549, 96 h, 96 h, read-out: Calculated IC50 after daily treatment for 96 h): 5 µM; IC50 ([6]; Homo sapiens, Caco-2, 24 h, read-out: Calculated IC50 after single treatment for 24 h): > 100 µM; IC50 ([6]; Homo sapiens, Caco-2, 96 h, read-out: Calculated IC50 after daily treatment for 96 h): 0.44 ± 0.25 µM; IC50 ([7]; Homo sapiens, 24 h, read-out: Calculated IC50 after single treatment for 24 h): 26.2 ± 2.8 µM; IC50 ([7]; Homo sapiens, 96 h, read-out: Calculated IC50 after daily treatment for 96 h): 5 ± 0.82 µM |
| 7.1 ± 0.1 | 21.6 ± 2.6 | 44.7 ± 5.9 | 6 ± 0.1 | 44.7 ± 5.9 | 8.2 ± 0.6 | CSc1nc(NCCc2ccccc2)c2cnn(CC(Cl)c3ccc(F)cc3)c2n1 (stereo not drawn) [Si66] | 23.7 ± 2.2 | 6.9 ± 0.4 | 20.7 ± 0.4 | 10.3 ± 0.3 | 23.7 ± 2 | 9.1 ± 0.2 | 14.2 ± 1.7 | 4.8 ± 0.4 | 65.3 | 11.8 | 22.9 | 52.7 | 25.6 | 21.7 | Cells in G1 phase [10]: 58.4%; Cells in G2 phase [10]: 18.5%; Cells in S phase [10]: 23.1%; Cells in G1 phase [11]: 32.1%; Cells in G2 phase [11]: 6.7%; Cells in S phase [11]: 61.5%; Cells in G1 phase [12]: 68.6%; Cells in G2 phase [12]: 5.3%; Cells in S phase [12]: 26.1%; Cells in G1 phase [13]: 61%; Cells in G2 phase [13]: 5.8%; Cells in S phase [13]: 33.3%; Cells in G1 phase [14]: 61.1%; Cells in G2 phase [14]: 9.2%; Cells in S phase [14]: 29.8% |
| 11.2 ± 1 | > 100 | 72.9 ± 6.4 | 7.5 ± 0.2 | 72.9 ± 6.4 | 22.6 ± 4.3 | CSc1nc(NCc2ccccc2)c2cnn(CC(Br)c3ccccc3)c2n1 (stereo not drawn) [Si81] | 30.8 ± 2.5 | 12.1 ± 2.1 | 20.6 ± 4 | 19.5 ± 3.1 | 26.8 ± 1.5 | > 20 | 17.4 ± 2.6 | 14.1 ± 0.2 | 66.7 | 10.7 | 22.6 | 61.9 | 22 | 16.1 | Cells in G1 phase [11]: 33.3%; Cells in G2 phase [11]: 8.8%; Cells in S phase [11]: 57.9%; Cells in G1 phase [12]: 62.8%; Cells in G2 phase [12]: 6.3%; Cells in S phase [12]: 30.9%; Cells in G1 phase [13]: 58.7%; Cells in G2 phase [13]: 6.9%; Cells in S phase [13]: 34.3%; Cells in G1 phase [14]: 58.8%; Cells in G2 phase [14]: 9.5%; Cells in S phase [14]: 31.7% |
| > 20 | > 100 | > 100 | > 20 | > 100 | 16.2 ± 6.3 | CCN(CC)c1nc(SC)nc2c1cnn2CC(Cl)c1ccccc1 (stereo not drawn) [Si27] | > 100 | > 20 | > 100 | > 20 | > 100 | > 20 | > 100 | > 20 |  |  |  |  |  |  |  |
